In patent publication US10870660B2, “Nitrogen-containing condensed ring compounds having dopamine D3 antagonistic effect” (Shionogi & Co., Ltd., priority 2016, dated 2020):

Experiments:
[1] = molecular target: human recombinant dopamine D2 receptor (Homo sapiens (Human), UniProt P14416); test: Test of binding inhibition for the human dopamine D2 receptor ([3H]-Metylspiperone SPA binding); conditions: [3H]-Metylspiperone 1.2 nM, Jump-In HEK cell membranes, read-out: hD2_Ki
Method: Cell membranes: Jump-In HEK cell membranes expressing human recombinant dopamine D2 receptor (2 μg/well)
Buffer solution: 50 mM Tris-HCl (35409-45, Nacalai Tesque) (pH 7.4) containing 120 mM NaCl (31320-05, Nacalai Tesque), 1 mM MgCl2.6H2O (20909-55, Nacalai Tesque), 5 mM KCl (28514-75, Nacalai Tesque) and 2 mM CaCl2 (067-31, Nacalai Chemical, Ltd)
Radioligand: (final concentration) 1.2 nM [^3H]-Metylspiperone ([^3H—N-methyl-]-Metylspiperone, NET-856, 83.8 Ci/mmol, PerkinElmer)
(§1) Non-specific ligand: (final concentration) 10 μM Butaclamol [(+)-Butaclamol Hydrochioride, D033, Sigma]
(§2) SPA beads: SPA beads [WGA PVT SPA Scintillatiion Beads, RPNQ0001 (500 mg), RPNQ0060 (2 g), PerkinElmer] (0.2 mg/well)
(§3) Incubation time and temperature: 120 min at 25° C.
(§4) Butaclamol or the compounds of the present invention were weighed and DMSO was added to make a 10 mM solution. This solution was diluted to each concentration.
[^3H]-Metylspiperone was weighed and the buffer solution was added to make a 3.6 nM solution.
(§5) SPA beads were weighed and stirred in water to make a 50 mg/mL solution. Using this solution, a mixed solution with the cell membranes was prepared.
225 nL of the solutions of the non-specific ligand or the compounds of the present invention at each concentration (in case of vehicle, final concentration 0.3% DMSO) were added in each well of a 384-well white/clear bottom microplate (3706, Corning). Jump-In HEK Cell membranes (final reaction amount: 2 μg protein/well), SPA beads (final reaction amount: 0.2 mg/well) and the buffer were mixed and the mixed solution was left still for more than or equal to 1 h at 4° C. Then, 50 μL of the mixture was added to each well of the plate. In addition, 25 μL of 3.6 nM [^3H]-Metylspiperone (final concentration: 1.2 nM) was added to each well. The plate was sealed by putting TopSeal-A 96/384 well (6050185, PerkinElmer) on the top of the plate, mixed using stirring deaerator (Welltornado, FK-62, Sakaki) and incubated for 120 min at 25° C. After incubation, the radioactivity of [^3H]-Metylspiperone which was binded to D2 receptor was determined by liquid scintillation counter (1450 Microbeta, PerkinElmer) in each well. Non-specific binding was calculated based on the radioactivity of [^3H]-Metylspiperone in the presence of 10 μM non-labeled Butaclamol. The total binding was calculated using the radioactivity of [^3H]-Metylspiperone in the absence of the compounds of the present invention (Vehicle). The Ki values were calculated from dose-response curves.
(§6) Binding activities of the compounds of the present invention were calculated from the following Binding Inhibition Rate (%): Inhibition Rate (%)=[1−(c−a)(b−a)]×100(%) • a: Average cpm of non-specific binding • b: Average cpm of total binding • c: Cpm in the presence of each test compound

[2] = molecular target: human recombinant dopamine D3 receptor (Homo sapiens (Human), UniProt P35462); test: Test of binding inhibition for the human dopamine D3 receptor ([3H]-Metylspiperone SPA binding); conditions: [3H]-Metylspiperone 2 nM, Jump-In HEK cell membranes, read-out: hD3_Ki
Method: Cell membranes: Jump-In HEK cell membranes expressing human recombinant dopamine D3 receptor (4 μg/well)
as §1, §2, §3, §4
[^3H]-Metylspiperone was weighed and the buffer solution was added to make a 6 nM solution.
as §5
Jump-In HEK Cell membranes (final reaction amount: 4 μg/well), SPA beads (final reaction amount: 0.2 mg/well) and Tris-HCl buffer were mixed and the mixed solution was left still for more than 60 min at 4° C. Then, 50 μL of the mixture was added to each well of the plate. In addition, 25 μL of 6 nM [^3H]-Metylspiperone (final concentration: 2 nM) was added to each well. […] Non-specific binding was calculated based on the radioactivity of [^3H]-Metylspiperone in the presence of 10 μM non-labeled Butaclamol. The total binding was calculated based on the radioactivity of [^3H]-Metylspiperone in the absence of the compounds of the present invention (Vehicle). The Ki values were calculated from dose-response curves.
as §6

Sequence of human recombinant dopamine D2 receptor (P14416 whole entry): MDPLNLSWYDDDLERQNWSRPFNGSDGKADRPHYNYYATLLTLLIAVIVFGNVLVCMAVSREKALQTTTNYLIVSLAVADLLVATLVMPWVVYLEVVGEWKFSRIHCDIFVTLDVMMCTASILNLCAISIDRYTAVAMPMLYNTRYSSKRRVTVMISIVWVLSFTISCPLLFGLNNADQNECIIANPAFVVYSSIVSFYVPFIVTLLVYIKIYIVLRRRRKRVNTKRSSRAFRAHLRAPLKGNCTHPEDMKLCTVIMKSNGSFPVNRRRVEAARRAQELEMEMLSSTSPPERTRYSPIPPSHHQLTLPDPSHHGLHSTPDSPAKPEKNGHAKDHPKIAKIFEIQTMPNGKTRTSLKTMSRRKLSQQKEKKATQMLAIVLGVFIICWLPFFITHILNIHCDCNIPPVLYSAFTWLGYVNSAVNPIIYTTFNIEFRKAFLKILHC
Sequence of human recombinant dopamine D3 receptor (P35462 whole entry): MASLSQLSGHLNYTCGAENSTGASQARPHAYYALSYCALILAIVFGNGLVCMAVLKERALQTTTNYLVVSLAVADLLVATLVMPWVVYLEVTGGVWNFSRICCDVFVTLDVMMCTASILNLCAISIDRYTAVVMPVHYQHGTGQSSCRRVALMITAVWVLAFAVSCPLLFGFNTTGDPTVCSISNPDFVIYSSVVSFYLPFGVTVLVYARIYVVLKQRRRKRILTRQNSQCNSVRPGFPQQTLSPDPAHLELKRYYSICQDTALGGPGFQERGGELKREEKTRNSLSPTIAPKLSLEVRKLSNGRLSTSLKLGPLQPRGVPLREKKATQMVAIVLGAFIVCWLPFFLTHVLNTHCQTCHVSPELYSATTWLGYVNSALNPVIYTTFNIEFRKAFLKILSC

Compound	Ki [1]	Ki [2]
O=C(N[C@H]1CC[C@H](CCN2CC[C@H]3CN(c4ccccc4)C[C@@H]3C2)CC1)c1cccc2ncccc12 (racemic) [Compound I-033]	170 nM	3.6 nM
CC(C)Oc1ccc2c(n1)CCN(CC[C@H]1CC[C@H](NC(=O)c3cccc4nn(C)cc34)CC1)CC2 [II-050]	> 1800 nM	0.51 nM
Cn1cc2c(C(=O)N[C@H]3CC[C@H](CCN4CCc5nc(OCC(F)(F)F)sc5CC4)CC3)cccc2n1 [II-046]	1200 nM	0.2 nM
O=C(NCCCCN1CCc2ccc(OCC(F)(F)F)nc2CC1)c1cc2ccccc2[nH]1 [II-105]	1100 nM	0.11 nM
O=C(N[C@H]1CC[C@H](CCN2CCc3sc(OCC(F)(F)F)nc3C2)OC1)c1cccc2ncccc12 [Compound I-142]	650 nM	0.72 nM
Cc1ncc(/C=C/C(=O)N[C@H]2CC[C@H](CCN3CCc4nc(OCC(F)(F)F)sc4CC3)CC2)cn1 [II-048]	> 1700 nM	0.82 nM
O=C(N[C@H]1CC[C@H](CCN2CCc3sc(Br)nc3C2)CC1)c1cccc2ncccc12 [Compound I-003]	> 1900 nM	2.6 nM
COc1cc(CC(=O)N[C@H]2CC[C@H](CCN3CCc4ccc(OCC(F)(F)F)nc4CC3)CC2)on1 [II-077]	> 1800 nM	0.095 nM

Other lines, results leading:

Ki [1]	Ki [2]	Compound
770 nM	0.52 nM	Cc1cnc(CC(=O)N[C@H]2CC[C@H](CCN3CCc4sc(CCC(F)(F)F)nc4C3)CC2)o1 [III-698]
310 nM	0.4 nM	Cc1ncccc1C(=O)N[C@H]1CC[C@H](CCN2CCc3sc(OCC(C)(F)F)nc3C2)CC1 [III-555]
1100 nM	0.6 nM	Cn1cc2ccc(C(=O)N[C@H]3CC[C@H](CCN4CCc5nc(OCC(F)F)sc5CC4)CC3)cc2n1 [III-270]
1300 nM	0.5 nM	Cn1cc2c(C(=O)NN3CCC(CCN4CCc5sc(OCC(F)(F)F)nc5C4)CC3)cccc2n1 [III-661]
280 nM	0.1 nM	Cn1cc2c(C(=O)N[C@H]3CC[C@H](CCN4CCc5sc(CCC(F)F)nc5C4)CC3)cccc2n1 [III-685]
570 nM	0.78 nM	Cc1nnc(CC(=O)N[C@H]2CC[C@H](CCN3CCc4nc(OCC(F)F)sc4CC3)CC2)o1 [III-273]
830 nM	0.46 nM	Cn1ncc(CC(=O)N[C@H]2CC[C@H](CCN3CCc4sc(OCC(C)(F)F)nc4C3)CC2)c1F [III-548]
460 nM	0.77 nM	Cc1cnc(CC(=O)N[C@H]2CC[C@H](CCN3CCc4ccc(OCC(F)(F)F)nc4CC3)OC2)o1 [III-234]
> 1700 nM	0.55 nM	CCCOc1nc2c(s1)CCN(CC[C@H]1CC[C@H](NC(=O)c3cccc4nn(C)cc34)CC1)C2 [III-544]
580 nM	0.37 nM	Cn1cc2c(C(=O)N[C@H]3CC[C@H](CCN4CCc5sc(OCC(F)(F)F)nc5C4)CC3)cccc2n1 [III-464]
800 nM	0.2 nM	Cc1ncc(CC(=O)N[C@H]2CC[C@H](CCN3CCc4sc(CCC(F)(F)F)nc4C3)CC2)o1 [III-696]
140 nM	0.12 nM	Cc1ncc(/C=C/C(=O)N[C@H]2CC[C@H](CCN3CCc4nc(OCC(F)F)sc4CC3)CC2)s1 [III-274]
500 nM	0.29 nM	Cn1cc2c(C(=O)N[C@H]3CC[C@H](CCN4CCc5sc(N6CC(F)(F)C6)nc5C4)CC3)cccc2n1 [III-439]
380 nM	0.51 nM	CCn1c(C(=O)N[C@H]2CC[C@H](CCN3CCc4sc(CCC(F)(F)F)nc4C3)CC2)cccc1=O [III-704]
490 nM	0.7 nM	Cc1ncc(CC(=O)N[C@H]2CC[C@H](CCN3CCc4ccc(OCC(F)(F)F)nc4CC3)OC2)o1 [III-231]
920 nM	0.37 nM	Cn1cc2c(C(=O)N[C@H]3CC[C@H](CCN4CCc5sc(CCC(C)(F)F)nc5C4)CC3)cccc2n1 [III-642]
> 1900 nM	0.13 nM	CC(Oc1nc2c(s1)CCN(CC[C@H]1CC[C@H](NC(=O)c3cccc4nn(C)cc34)CC1)CC2)C(F)(F)F (some centres unmarked) [III-063]
